Test results: patent US5436229A, “Bisulfite adducts of arginine aldehydes” (Eli Lilly and Company, priority 1994, dated 1995)

How the values were obtained:
factor Xa = target: T1, factor Xa (Homo sapiens, UniProt P00742); experiment: Serine protease inhibition (Kass), factor Xa; format: biochemical
T1 construct: Human factors X, Xa, IXa, XIa, and XIIa are purchased from Enzyme Research Laboratories; purchased Enzyme Research Laboratories, South Bend, Ind
Method in brief: (§1)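 Chromogenic p-nitroanilide substrate assays run as for human thrombin; trypsin with N-Benzoyl-Phe-Val-Arg-p-nitroanilide, human factor Xa with N-Benzoyl-Ile-Glu-Gly-Arg-p-nitroanilide. Values are association constants (Kass).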

Human plasmin = target: T2, Human plasmin (Homo sapiens, UniProt P00747); experiment: Serine protease inhibition (Kass), plasmin; format: biochemical
T2 construct: Human plasmin is purchased from Boehringer Mannheim; purchased Boehringer Mannheim, Indianapolis, Ind
T2 sequence (P00747 581-810 limits assumed): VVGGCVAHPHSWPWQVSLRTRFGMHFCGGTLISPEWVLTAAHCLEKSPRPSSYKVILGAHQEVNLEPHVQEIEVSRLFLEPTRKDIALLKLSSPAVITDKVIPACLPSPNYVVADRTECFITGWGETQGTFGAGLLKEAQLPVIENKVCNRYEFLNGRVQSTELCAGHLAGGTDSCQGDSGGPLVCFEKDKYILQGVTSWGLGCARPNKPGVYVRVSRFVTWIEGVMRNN
T2 sequence (P00747 97-580 partner limits assumed): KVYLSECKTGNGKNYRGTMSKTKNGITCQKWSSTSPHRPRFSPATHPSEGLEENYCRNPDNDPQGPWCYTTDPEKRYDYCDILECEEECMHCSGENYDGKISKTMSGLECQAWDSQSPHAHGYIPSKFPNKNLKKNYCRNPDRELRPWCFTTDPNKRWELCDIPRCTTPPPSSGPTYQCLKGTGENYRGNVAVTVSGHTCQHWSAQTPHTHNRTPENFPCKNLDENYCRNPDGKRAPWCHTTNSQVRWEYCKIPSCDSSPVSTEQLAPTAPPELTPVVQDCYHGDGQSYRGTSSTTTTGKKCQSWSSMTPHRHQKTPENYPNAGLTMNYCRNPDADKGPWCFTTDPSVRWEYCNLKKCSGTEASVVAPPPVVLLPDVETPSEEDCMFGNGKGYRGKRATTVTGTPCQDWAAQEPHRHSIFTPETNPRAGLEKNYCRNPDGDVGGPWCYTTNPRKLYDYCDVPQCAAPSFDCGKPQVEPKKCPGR
Method in brief: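 Kass values come from the thrombin chromogenic procedure applied to fibrinolytic proteases. t-PA (nt-PA single chain, or mt-PA6) paired with substrate H-D-Ile-Pro-Arg-p-nitroanilide; human plasmin paired with H-D-Val-Leu-Lys-p-nitroanilide.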

human plasma [1] = experiment: Human plasma anticoagulation, thrombin time (TT); format: biochemical
Method in brief: (§2)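 Compounds added across a wide concentration range to human plasma; APTT, PT and TT clotting times measured on a coagulation instrument, bovine thrombin used for plasma assays. Concentration doubling clotting time estimated by linear extrapolation.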

human thrombin = human thrombin (Homo sapiens, UniProt P00734); experiment: Thrombin amidase inhibition (Kass), chromogenic substrate; format: biochemical
Method in brief: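 Kass, in liter per mole, was averaged over several compound concentrations, using free thrombin from a rate standard curve and free inhibitor as added minus bound. Hydrolysis of chromogenic substrate (0.25 mg/ml solution) was monitored at 405 nm with human thrombin (8 NIH units/ml solution) in Tris-NaCl buffer pH 7.4, compound in 50% aqueous methanol.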

human plasma [2] = experiment: Human plasma anticoagulation, prothrombin time (PT); format: biochemical
Method in brief: as §2

Bovine trypsin = target: T3, Bovine trypsin (Bos taurus, UniProt P00760); experiment: Serine protease inhibition (Kass), trypsin; format: biochemical
T3 construct: Bovine trypsin is purchased from Worthington Biochemicals; purchased Worthington Biochemicals, Freehold, N.J
T3 sequence (P00760 24-246): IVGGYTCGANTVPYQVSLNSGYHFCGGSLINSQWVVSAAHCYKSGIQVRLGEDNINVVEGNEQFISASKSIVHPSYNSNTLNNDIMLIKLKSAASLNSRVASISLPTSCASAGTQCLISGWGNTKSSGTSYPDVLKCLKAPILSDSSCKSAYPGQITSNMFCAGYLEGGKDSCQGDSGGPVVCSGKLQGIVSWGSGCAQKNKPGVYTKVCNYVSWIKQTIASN
Method in brief: as §1

human plasma [3] = experiment: Human plasma anticoagulation, activated partial thromboplastin time (APTT); format: biochemical
Method in brief: as §2

[4] = target: T4, tissue plasminogen activator (t-PA) (Homo sapiens, UniProt P00750); experiment: Serine protease inhibition (Kass), t-PA; format: biochemical
T4 construct: purchased American Diagnostica, Greenwich, Conn
T4 sequence (P00750 36-562): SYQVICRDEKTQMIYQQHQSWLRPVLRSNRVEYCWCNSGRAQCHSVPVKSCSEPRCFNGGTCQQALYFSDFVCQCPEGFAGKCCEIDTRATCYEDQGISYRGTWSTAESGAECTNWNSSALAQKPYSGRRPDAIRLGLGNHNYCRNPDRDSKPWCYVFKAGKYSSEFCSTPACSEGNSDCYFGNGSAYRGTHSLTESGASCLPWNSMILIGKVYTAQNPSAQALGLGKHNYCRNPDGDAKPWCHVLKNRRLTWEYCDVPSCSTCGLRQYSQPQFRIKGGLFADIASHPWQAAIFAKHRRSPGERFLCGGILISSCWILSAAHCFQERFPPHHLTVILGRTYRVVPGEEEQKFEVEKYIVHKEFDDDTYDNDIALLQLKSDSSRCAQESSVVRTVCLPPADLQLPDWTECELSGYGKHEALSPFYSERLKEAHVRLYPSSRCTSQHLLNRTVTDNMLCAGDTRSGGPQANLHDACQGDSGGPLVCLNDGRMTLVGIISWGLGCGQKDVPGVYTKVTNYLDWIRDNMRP

[5] = Index of Bioavailability (plasma TT AUC, oral vs i.v.); format: in vivo; details: rats, oral vs i.v. bolus
From the text: Assays are done in duplicate and averaged.
Each sample population represents alternating sequential time points.

T1 sequence (P00742 235-488 limits assumed): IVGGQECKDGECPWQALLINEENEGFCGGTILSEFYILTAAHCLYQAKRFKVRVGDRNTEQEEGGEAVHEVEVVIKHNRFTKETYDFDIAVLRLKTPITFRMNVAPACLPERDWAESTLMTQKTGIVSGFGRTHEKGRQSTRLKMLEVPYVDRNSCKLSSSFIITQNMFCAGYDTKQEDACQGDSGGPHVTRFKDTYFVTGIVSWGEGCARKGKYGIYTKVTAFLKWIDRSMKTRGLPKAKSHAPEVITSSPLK
T1 sequence (P00742 41-179 partner limits assumed): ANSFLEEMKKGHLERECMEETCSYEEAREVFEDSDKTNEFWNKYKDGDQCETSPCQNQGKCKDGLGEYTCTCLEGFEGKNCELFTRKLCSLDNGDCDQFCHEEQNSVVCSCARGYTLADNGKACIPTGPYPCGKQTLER

Row | Compound | Kass Xa (factor Xa) [L/mol × 10^6] | Kass Plasmin (Human plasmin) [L/mol × 10^6] | 2 × Clotting time TT (human plasma [1]) [ng/mL] | Kass Human Thrombin (human thrombin) | 2 × Clotting time PT (human plasma [2]) | Kass Trypsin (Bovine trypsin) [L/mol × 10^6] | 2 × Clotting time APTT (human plasma [3]) | Kass t-PA [4] [L/mol × 10^6] | Percent Relative Activity (Index of Bioavailability) [5] [%] | inhibition at 13 µg/mL ([4]; at 13 μg/mL, read-out: inhib. of t-PA) [%]
1 | Cl.Cn1c(C(=O)N[C@H](Cc2ccccc2)C(=O)N2CCC[C@H]2C(=O)N[C@H](C=O)CCCNC(=N)N)cc2ccccc21 [Example 45, N-(1-methylindolyl-2-carbonyl)-D-phenylalanyl-L-Prolinyl-L-Arginine Aldehyde Hydrochloride] | 0.51 | 7.9 | 43 | 850 L/mol × 10^6 | 870 ng/mL | 120 | 440 ng/mL | 31 | 2 | 
2 | Cl.N=C(N)NCCC[C@@H](C=O)NC(=O)[C@@H]1CCCN1C(=O)[C@@H](Cc1ccccc1)NC(=O)c1cc2ccccc2cn1 [Example 46, N-(isoquinolinyl-2-carbonyl)-D-phenylalanyl-L-Prolinyl-L-Arginine Aldehyde Hydrochloride] | 0.16 | 0.55 | 35 | 110 L/mol × 10^6 | 1,400 ng/mL | 22 | 1,100 ng/mL | 0.32 | 1 | 
3 | Cl.N=C(N)NCCC[C@@H](C=O)NC(=O)[C@@H]1CCCN1C(=O)[C@@H](Cc1ccccc1)NC(=O)c1cccnc1 [Example 47, N-(nicotinoyl)-D-phenylalanyl-L-Prolinyl-L-Arginine Aldehyde Hydrochloride] | 0.080 | 0.41 | 47 | 58 L/mol × 10^6 | 1,700 ng/mL | 12 | 1,300 ng/mL | 0.17 | 3 | 
4 | CS(=O)(=O)N[C@H](Cc1ccccc1)C(=O)N1CCC[C@H]1C(=O)N[C@H](C=O)CCCNC(=N)N.Cl [Example 51, N-(methylsulfonyl)-D-phenylalanyl-L-Prolinyl-L-Arginine Aldehyde Hydrochloride] | 2.4 | 17 | 21 | 690 L/mol × 10^6 | 530 ng/mL | 220 | 330 ng/mL | 13 | 27 | 
5 | CCS(=O)(=O)N[C@H](Cc1ccccc1)C(=O)N1CCC[C@H]1C(=O)N[C@H](C=O)CCCNC(=N)N.Cl [Example 52, N-(ethylsulfonyl)-D-phenylalanyl-L-Prolinyl-L-Arginine Aldehyde Hydrochloride] | 2.6 | 31 | 9 | 450 L/mol × 10^6 | 660 ng/mL | 260 | 260 ng/mL | 2.9 | 31 | 
6 | CCCS(=O)(=O)N[C@H](Cc1ccccc1)C(=O)N1CCC[C@H]1C(=O)N[C@H](C=O)CCCNC(=N)N.Cl [Example 53, N-(n-propylsulfonyl)-D-phenylalanyl-L-Prolinyl-L-Arginine Aldehyde Hydrochloride] | 13 | 29 | 6 | 1,700 L/mol × 10^6 | 510 ng/mL | 480 | 220 ng/mL | 2.8 | 14 | 
7 | CCCCS(=O)(=O)N[C@H](Cc1ccccc1)C(=O)N1CCC[C@H]1C(=O)N[C@H](C=O)CCCNC(=N)N.Cl [Example 54, N-(n-butylsulfonyl)-D-phenylalanyl-L-Prolinyl-L-Arginine Aldehyde Hydrochloride] | 8.3 | 27 | 18 | 470 L/mol × 10^6 | 700 ng/mL | 230 | 300 ng/mL | 0.83 | 18 | 
8 | CC(C)S(=O)(=O)N[C@H](Cc1ccccc1)C(=O)N1CCC[C@H]1C(=O)N[C@H](C=O)CCCNC(=N)N.Cl [Example 55, N-(isopropylsulfonyl)-D-phenylalanyl-L-Prolinyl-L-Arginine Aldehyde Hydrochloride] | 6.0 | 25 | 13 | 460 L/mol × 10^6 | 510 ng/mL | 260 | 270 ng/mL | 3.5 | 10 | 
9 | CN(C)S(=O)(=O)N[C@H](Cc1ccccc1)C(=O)N1CCC[C@H]1C(=O)N[C@H](C=O)CCCNC(=N)N.Cl [Example 56, N-(dimethylaminosulfonyl)-D-phenylalanyl-L-Prolinyl-L-Arginine Aldehyde Hydrochloride] | 3.9 | 21 | 46 | 300 L/mol × 10^6 | 480 ng/mL | 160 | 360 ng/mL |  | 26 | 100
10 | N=C(N)NCCC[C@H](NC(=O)[C@@H]1CCCN1C(=O)C1CC2CCCCC2CN1)C(O)S(=O)(=O)[O-].O=S(=O)(O)O.[Na+] (stereo partly drawn) [Example 80, D-1,2,3,4,4a,6,7,8,8a-Perhydroisoquinolin-3-yl carbonyl-L-prolinyl-L-arginine aldehyde bisulfite sulfate] |  | 2.7 |  | 62 L/mol × 10^6 |  | 137 |  | 0.01 | 57 | 
11 | N-methyl-D-Phg-Pro-Arg-H.H2 SO4 [79 (Step A)] |  | 1.3 |  | 236 L/mol × 10^6 |  | 87 |  | 0.01 | 18 | 
